Assay results from patent US7462599B2, “Use of effectors of glutaminyl and glutamate cyclases” (Probiodrug AG, priority 2003, dated 2008).
“And” between values parts separate entries of the source, which are not always exact repeats. Equal entries are not always repeated. “Also recorded” adds a separate entry of the source. Bridge positions count the residues as written; N and C are the ends. Square brackets hold non-standard residues; d marks the D form. Ends that are not written are not given here. Peptide text beside a SMILES is read from it. β3hQ = NC(=O)CC[C@H](N)CC(=O)O

Legend:
[1] = target: T1, QC (Homo sapiens, UniProt Q16769); assay: Inhibitor assay, human QC catalyzed reaction (Ki determination); assay type: biochemical; set-up: The cDNA of the mature QC starting with codon 38 was fused in frame with the plasmid encoded 6× histidine tag; 6x histidine tag; made in house; host or cells: Pichia pastoris X33 (pPICZαB); also E. coli M15 (pQE-31)
[2] = target: T1, QC; assay: Enzyme inactivation/reactivation of human QC; assay type: biochemical; set-up: The cDNA of the mature QC starting with codon 38 was fused in frame with the plasmid encoded 6× histidine tag; 6x histidine tag; made in house; host or cells: Pichia pastoris X33 (pPICZαB); also E. coli M15 (pQE-31)
[3] = system: mammalian QC; conditions: Busby et al. 1987; cited from earlier work
[4] = Procedure: H-Glu(OMe)-βNA and H-Glu-βNA. […] These fluorogenic substrates were analyzed fluorometrically, utilizing pyroglutamyl aminopeptidase as auxiliary enzyme.
[5] = target: T1, QC; assay: Fluorometric QC assay with pyroglutamyl aminopeptidase as auxiliary enzyme, human QC; assay type: biochemical; set-up: The cDNA of the mature QC starting with codon 38 was fused in frame with the plasmid encoded 6× histidine tag; 6x histidine tag; made in house; host or cells: Pichia pastoris X33 (pPICZαB); also E. coli M15 (pQE-31); conditions: for conversion by human QC: analyzed fluorometrically; for inhibition of human QC by the peptide: H-Gln-AMC as substrate
Text: Excitation/emission wavelengths were 320/410 nm.
H-Glu(OMe)-βNA and H-Glu-βNA.

[6] = target: T1, QC; assay: Continuous spectrophotometric assay of substrate conversion, human QC;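 as to all read-outs here: initial rates read at 30 °C in a microplate reader, with activity quantified against an ammonia calibration curve under the same assay conditions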; assay type: biochemical; set-up: The cDNA of the mature QC starting with codon 38 was fused in frame with the plasmid encoded 6× histidine tag; 6x histidine tag; made in house; host or cells: Pichia pastoris X33 (pPICZαB); also E. coli M15 (pQE-31); conditions: for Ki / Ki*: n.i. = no inhibition; for Ki*: for substrate inhibition
Procedure: The initial velocities were evaluated and the enzymatic activity was determined from a standard curve of ammonia under assay conditions. All samples were measured at 30° C., using either the [sequence]luor Plus or the Sunrise (both from TECAN) reader for microplates. Kinetic data was evaluated using GraFit software.

[7] = target: T1, QC; assay: Discontinuous method for QC kinetic parameters; assay type: biochemical
[8] = target: T1, QC; assay: MALDI-TOF qualitative substrate conversion, human QC; assay type: biochemical; set-up: The cDNA of the mature QC starting with codon 38 was fused in frame with the plasmid encoded 6× histidine tag; 6x histidine tag; made in house; host or cells: Pichia pastoris X33 (pPICZαB); also E. coli M15 (pQE-31)
Procedure: Matrix-assisted laser desorption/ionization mass spectrometry was carried out using the Hewlett-Packard G2025 LD-TOF System with a linear time of flight analyzer. […] Samples (5 μl) were mixed with equal volumes of the matrix solution. For matrix solution we used DHAP/DAHC, prepared by solving 30 mg 2′,6′-dihydroxyacetophenone (Aldrich) and 44 mg diammonium hydrogen citrate (Fluka) in 1 ml acetonitrile/0.1% TFA in water (1/1, v/v). A small volume (≈1 μl) of the matrix-analyte-mixture was transferred to a probe tip and immediately evaporated in a vacuum chamber (Hewlett-Packard G2024A sample prep accessory) to ensure rapid and homogeneous sample crystallization.
In order to further investigate the specificity and selectivity of the QCs, peptides were synthesized comprising either a modified N-terminal glutaminyl residue or a modified amino acid in the second position. […] Due to the cyclization of the glutaminyl residue or its analog, respectively, a mass difference of the substrate and the product of catalysis is detected. In cases of ammonia liberation of one mole per mole of substrate, the conversion was also analyzed quantitatively using the spectrophotometric assay.

[9] = 0.05 M Tris-HCl, pH 8.0, 0.5 M KCl
[10] = recombinant human QC, buffer containing 1% DMSO

T1 sequence (Q16769 29-361): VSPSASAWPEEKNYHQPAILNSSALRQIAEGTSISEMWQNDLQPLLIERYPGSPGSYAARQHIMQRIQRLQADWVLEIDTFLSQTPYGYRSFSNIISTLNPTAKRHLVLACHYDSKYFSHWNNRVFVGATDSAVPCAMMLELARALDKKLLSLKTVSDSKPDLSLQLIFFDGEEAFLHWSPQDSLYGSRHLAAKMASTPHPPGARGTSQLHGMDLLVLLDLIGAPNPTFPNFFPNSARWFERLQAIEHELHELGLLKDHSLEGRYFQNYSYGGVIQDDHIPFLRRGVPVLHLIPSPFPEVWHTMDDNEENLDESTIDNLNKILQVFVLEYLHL

Cn1cnc(CCN)c1 [1-methyl-4-(β-aminoethyl)-imidazole]
inhibition of human QC [1]: complete loss of inhibitory activity
Ki value ([1]; Table 4, n.i. = no inhibition): n.i.

c1ccc(-n2ccnc2)cc1 [1-phenylimidazole]
inhibition of human QC [1]: inactive under the experimental conditions

O=C1CNC(=S)N1CCCn1ccnc1 [3-[3-(1H-imidazol-1-yl)propyl]-2-thioxoimidazolidin-4-one]
Ki ([1]; 30° C., 0.05 M Tris-HCl pH 8.0, 5 mM EDTA): 810 ± 10 nM

Oc1cccc2cccnc12 [8-hydroxyquinoline]
inhibition of human QC catalyzed substrate cyclization by chelators [2]: abolished

O=C(O)CN(CCN(CC(=O)O)CC(=O)O)CC(=O)O [EDTA]
inhibition of human QC catalyzed substrate cyclization by chelators [2]: did not show remarkable inhibition
inhibition of mammalian QC [3]: did not inhibit

N[C@@H](CCC(=O)O)C(=O)Nc1ccc2ccccc2c1 [Glu-βNA, H-Glu-βNA]
limiting rate constant for nonenzymatic turnover (estimate, no product formed) ([4]; pH 6.0, 4 weeks): ≤ 1e-09 s⁻¹
conversion by human QC [5]: Neither of these compounds were converted

Cc1cc(=O)oc2cc(NC(=O)[C@@H](N)CCC(N)=O)ccc12 [H-Gln-AMC]
Km ([6]; Table 6, n.r. = not reactive): 54 ± 2 µM
kcat ([6]; Table 6, n.r. = not reactive): 5.3 ± 0.1 s⁻¹

C[C@H](NC(=O)[C@H](C)NC(=O)[C@@H](N)CCC(N)=O)C(N)=O [H-Gln-Ala-Ala-NH2] (H-Gln-Ala-Ala-NH2)
kcat ([6]; Table 7, substrate length): 76.3 ± 0.7 s⁻¹

C[C@H](NC(=O)[C@@H](N)CCC(N)=O)C(N)=O [H-Gln-Ala-NH2] (H-Gln-Ala-NH2)
kcat ([6]; Table 7, substrate length): 40.1 ± 0.9 s⁻¹

C[C@H](NC(=O)[C@@H](N)CCC(N)=O)C(=O)O [H-Gln-Ala-OH] (H-Gln-Ala-OH)
Km [6]: 232 ± 5 µM
kcat ([6]; 0.05 M Tris-HCl, pH 8.0): 54.4 ± 0.5 s⁻¹
kcat [6, 9]: 47.6 ± 0.6 s⁻¹
Ki [6, 9]: n.i.
Ki ([6]; 0.05 M Tris-HCl, pH 8.0): n.i.
Ki* ([6]; Table 6): n.i.
kcat ([6]; Table 6, n.r. = not reactive): 57.2 ± 0.4 s⁻¹
Km ([6]; pH 8): 269 µM and 357 µM

NC(=O)CC[C@H](NC(=O)[C@@H](N)CCC(N)=O)C(=O)O [H-Gln-Gln-OH] (H-Gln-Gln-OH)
Km [6]: 148 ± 5 µM
Ki* ([6]; Table 6): n.i.
kcat ([6]; Table 6, n.r. = not reactive): 20.7 ± 0.2 s⁻¹
Km [7]: 175 ± 18 µM
kcat ([7]; discontinuous method): 21.3 ± 0.6 s⁻¹

NC(=O)CC[C@H](N)C(=O)N[C@@H](CCC(=O)O)C(=O)O [H-Gln-Glu-OH] (H-Gln-Glu-OH)
kcat ([6]; 0.05 M Tris-HCl, pH 8.0): 21.4 ± 0.3 s⁻¹
kcat [6, 9]: 18.9 ± 0.5 s⁻¹
Ki [6, 9]: n.i.
Ki ([6]; 0.05 M Tris-HCl, pH 8.0): n.i.
Ki* ([6]; Table 6): n.i.
kcat ([6]; Table 6, n.r. = not reactive): 24.7 ± 0.2 s⁻¹
Km ([6]; pH 8): 373 µM and 607 µM

NC(=O)CC[C@H](N)C(N)=O [H-Gln-NH2]
Km ([6]; 0.05 M Tris-HCl, pH 8.0): 442 ± 30 µM
kcat ([6]; 0.05 M Tris-HCl, pH 8.0): 12.8 ± 0.3 s⁻¹
kcat [6, 9]: 12.2 ± 0.1 s⁻¹
Ki [6, 9]: n.i.
Ki ([6]; 0.05 M Tris-HCl, pH 8.0): n.i.
Ki* ([6]; Table 6): n.i.
kcat ([6]; Table 6, n.r. = not reactive): 12.8 ± 0.5 s⁻¹

NC(=O)CC[C@H](N)C(=O)O [H-Gln-OH]
KM ([6]; Table 6, n.r. = not reactive): n.r.
kcat ([6]; Table 6, n.r. = not reactive): n.r.

CC(C)(C)OC(=O)C(N)CCC(N)=O (stereo not drawn) [H-Gln-OtBu]
Ki* ([6]; Table 6): n.i.
Km ([6]; Table 6, n.r. = not reactive): 1240 ± 74 µM
kcat ([6]; Table 6, n.r. = not reactive): 6.7 ± 0.2 s⁻¹

NC(=O)CC[C@H](N)C(=O)N[C@@H](Cc1ccc(O)cc1)C(=O)O [H-Gln-Tyr-OH] (H-Gln-Tyr-OH)
Km [6]: 211 ± 5 µM
Ki* ([6]; Table 6): n.i.
kcat ([6]; Table 6, n.r. = not reactive): 94 ± 1 s⁻¹

CC(C)[C@H](NC(=O)[C@@H](N)CCC(N)=O)C(=O)O [H-Gln-Val-OH] (H-Gln-Val-OH)
Km [6]: 196 ± 5 µM
Ki* ([6]; Table 6): n.i.
kcat ([6]; Table 6, n.r. = not reactive): 17.2 ± 0.1 s⁻¹

NC(=O)CC[C@H](N)C(=O)Nc1ccc2ccccc2c1 [H-Gln-βNA]
first-order rate constant of nonenzymatic pGlu-formation ([4]; pH 6.0, followed for 4 weeks): 1.2*10^−7 s^−1
kcat [6]: 20.6 ± 0.5 s⁻¹
kcat ([6]; pH 8): 21.7 ± 0.5 s⁻¹ and 20.0 ± 0.4 s⁻¹

COC(=O)CC[C@H](N)C(=O)N[C@@H](Cc1ccccc1)C(=O)N[C@@H](CCCCN)C(=O)N[C@@H](CCCNC(=N)N)C(=O)N[C@@H](CC(C)C)C(=O)N[C@@H](C)C(N)=O [H-Glu(OMe)-Phe-Lys-Arg-Leu-Ala-NH2] (H-E(OMe)FKRLA-NH2)
inhibition of human QC by the peptide [5]: not inhibited

COC(=O)CC[C@H](N)C(=O)Nc1ccc2ccccc2c1 [H-Glu(OMe)-βNA, H-Glu(OMe)-β-naphthylamide]
stability in Tris and Tricine buffers (non-enzymatically catalyzed cyclization) [4]: remarkable instability
conversion by human QC [5]: Neither of these compounds were converted

O=S(=O)([O-])[O-].[Zn+2] [ZnSO4]
restoration of QC activity after inactivation ([2]; metal ion incubation in presence of 0.5 mM EDTA): Near-total restoration

O=C(O)c1cccc(C(=O)O)n1 [dipicolinic acid]
inactivation of human QC after extensive dialysis [2]: almost completely inactivated
inhibition of human QC catalyzed substrate cyclization by chelators [2]: abolished

H-EFKRLA-NH2 [H-Glu-Phe-Lys-Arg-Leu-Ala-NH2]
inhibition of human QC by the peptide [5]: not inhibited

H-Gln(NMe)-Phe-Lys-Ala-Glu-NH2 (H-QFKAE-NH2; not fully specified (residue 1); printed as H-Gln(NMe)-Phe-Lys-Ala-Glu-NH2)
inhibition of human QC by the peptide [5]: not detected
conversion by human QC [8]: not recognized by human QC; also recorded: No substrate conversion was observed

H-Gln-Lys(Gln)-Arg-Leu-Ala-NH2 (H-QK(Gln)RLA-NH2; SMILES CC(C)C[C@H](NC(=O)[C@H](CCCNC(=N)N)NC(=O)[C@H](CCCCNC(=O)[C@@H](N)CCC(N)=O)NC(=O)[C@@H](N)CCC(N)=O)C(=O)N[C@@H](C)C(N)=O) [H-Gin-Lys(Gln)-Arg-Leu-Ala-NH2]
conversion by human QC [8]: converted

H-Gln-cyclo(Nε-Lys-Arg-Pro-Ala-Gly-Phe) (H-QKRPAGF; lactam 2-C; SMILES C[C@@H]1NC(=O)[C@@H]2CCCN2C(=O)[C@H](CCCNC(=N)N)NC(=O)[C@@H](NC(=O)[C@@H](N)CCC(N)=O)CCCCNC(=O)[C@H](Cc2ccccc2)NC(=O)CNC1=O)
Km [6]: 240 ± 14 µM
kcat (turnover number) [6]: 22.8 ± 0.6 s⁻¹

H-QAAAA-NH2 [H-Gln-Ala-Ala-Ala-Ala-NH2]
Km ([6]; Table 7, substrate length): 65 ± 3 µM
kcat ([6]; Table 7, substrate length): 60.5 ± 0.7 s⁻¹

H-QAASAA-NH2 [H-Gln-Ala-Ala-Ser-Ala-Ala-NH2]
Km ([6]; Table 7, substrate length): 79 ± 6 µM
kcat ([6]; Table 7, substrate length): 55.3 ± 1.6 s⁻¹

H-βhomoGln-Phe-Lys-Arg-Leu-Ala-NH2 (H-[β3hQ]FKRLA-NH2; SMILES CC(C)C[C@H](NC(=O)[C@H](CCCNC(=N)N)NC(=O)[C@H](CCCCN)NC(=O)[C@H](Cc1ccccc1)NC(=O)C[C@@H](N)CCC(N)=O)C(=O)N[C@@H](C)C(N)=O)
Km [6]: 2500 ± 200 µM
fold reduced efficiency of cyclization compared to peptides of similar size with N-terminal glutaminyl residue [6]: approximately 1000 fold
kcat (turnover number) [6]: 3.5 ± 0.1 s⁻¹

QFRHDSGYEVHHQKLVFFA-NH2 [[Gln^3]Aβ3-21a]
Km [6, 10]: 162 ± 12 µM
kcat [6, 10]: 62 ± 3 s⁻¹

[Gln^1]-GnRH: GnRH with N-terminal glutamine: QHWSYGL RP(G) amide
Km ([6]; Table 1): 53 ± 3 µM
kcat ([6]; Table 1): 69.2 ± 1.1 s⁻¹

reduced 6-methylpterin
inhibition of mammalian QC [3]: Inhibition of a mammalian QC was only detected
